Tests used:
Homo sapiens [1] = organism: Homo sapiens; assay: Evaluated in vitro for its inhibitory activity on LPS-induced TNF-Alpha release in human monocyte.; type: functional
Phosphodiesterase 4 = Phosphodiesterase 4 (Homo sapiens, UniProt P27815+Q08499+Q07343+Q08493); assay: Evaluated in vitro for its inhibitory activity on human monocyte cytosol Phosphodiesterase type 4 (PDE4).; type: protein assay
Homo sapiens [2] = organism: Homo sapiens; assay: Evaluated in vitro for its inhibitory activity on LPS-induced TNF-Alpha release in human whole blood.; type: functional, organism-based
[3] = target: 3',5'-cyclic-AMP phosphodiesterase 4C (Homo sapiens, UniProt Q08493); assay: Evaluated in vitro for its inhibitory activity on unpurified recombinant Phosphodiesterase 4C
Sequence of 3',5'-cyclic-AMP phosphodiesterase 4C (Q08493 whole entry): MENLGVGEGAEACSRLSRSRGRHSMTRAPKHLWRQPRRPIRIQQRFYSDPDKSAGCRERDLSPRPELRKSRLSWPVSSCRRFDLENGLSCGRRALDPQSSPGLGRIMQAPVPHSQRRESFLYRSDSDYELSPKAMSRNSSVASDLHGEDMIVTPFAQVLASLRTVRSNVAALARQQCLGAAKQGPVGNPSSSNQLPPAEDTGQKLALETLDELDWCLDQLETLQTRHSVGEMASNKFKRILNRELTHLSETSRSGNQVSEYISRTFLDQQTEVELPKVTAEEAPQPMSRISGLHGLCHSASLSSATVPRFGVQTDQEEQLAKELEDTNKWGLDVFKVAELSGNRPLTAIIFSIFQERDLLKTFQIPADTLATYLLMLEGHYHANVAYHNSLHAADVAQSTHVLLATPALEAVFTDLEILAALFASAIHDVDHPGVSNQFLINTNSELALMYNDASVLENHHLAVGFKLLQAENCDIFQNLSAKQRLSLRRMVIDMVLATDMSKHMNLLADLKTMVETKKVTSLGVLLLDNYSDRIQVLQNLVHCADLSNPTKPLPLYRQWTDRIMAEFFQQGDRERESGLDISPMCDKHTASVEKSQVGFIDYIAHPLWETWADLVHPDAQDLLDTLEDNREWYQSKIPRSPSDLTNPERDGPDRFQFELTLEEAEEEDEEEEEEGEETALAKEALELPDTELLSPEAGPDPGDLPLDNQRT

[4] = target: 3',5'-cyclic-AMP phosphodiesterase 4B (Homo sapiens, UniProt Q07343); assay: Inhibition of recombinant human Phosphodiesterase 4B
Sequence of 3',5'-cyclic-AMP phosphodiesterase 4B (Q07343 whole entry): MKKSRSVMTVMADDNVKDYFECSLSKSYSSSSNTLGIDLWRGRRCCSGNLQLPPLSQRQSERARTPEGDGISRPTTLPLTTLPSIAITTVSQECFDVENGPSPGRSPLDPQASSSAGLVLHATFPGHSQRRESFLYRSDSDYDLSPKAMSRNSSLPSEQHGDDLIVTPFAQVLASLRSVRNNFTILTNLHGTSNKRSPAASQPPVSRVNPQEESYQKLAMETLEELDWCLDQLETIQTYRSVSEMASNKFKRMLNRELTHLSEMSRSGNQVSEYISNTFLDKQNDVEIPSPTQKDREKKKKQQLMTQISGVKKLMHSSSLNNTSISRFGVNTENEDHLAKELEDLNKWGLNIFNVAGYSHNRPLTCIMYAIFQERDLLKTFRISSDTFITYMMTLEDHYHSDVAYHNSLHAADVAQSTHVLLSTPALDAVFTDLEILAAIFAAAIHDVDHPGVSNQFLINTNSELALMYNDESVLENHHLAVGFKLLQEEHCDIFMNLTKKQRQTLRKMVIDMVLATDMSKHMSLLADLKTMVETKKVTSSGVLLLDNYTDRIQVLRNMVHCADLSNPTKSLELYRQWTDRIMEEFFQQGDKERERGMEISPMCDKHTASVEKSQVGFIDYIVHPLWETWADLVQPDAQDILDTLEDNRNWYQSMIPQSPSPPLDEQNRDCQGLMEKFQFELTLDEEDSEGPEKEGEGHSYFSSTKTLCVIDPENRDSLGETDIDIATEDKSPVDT

[5] = target: 3',5'-cyclic-AMP phosphodiesterase 4D (Homo sapiens, UniProt Q08499); assay: In vitro inhibitory activity on unpurified recombinant Phosphodiesterase 4D
Sequence of 3',5'-cyclic-AMP phosphodiesterase 4D (Q08499 whole entry): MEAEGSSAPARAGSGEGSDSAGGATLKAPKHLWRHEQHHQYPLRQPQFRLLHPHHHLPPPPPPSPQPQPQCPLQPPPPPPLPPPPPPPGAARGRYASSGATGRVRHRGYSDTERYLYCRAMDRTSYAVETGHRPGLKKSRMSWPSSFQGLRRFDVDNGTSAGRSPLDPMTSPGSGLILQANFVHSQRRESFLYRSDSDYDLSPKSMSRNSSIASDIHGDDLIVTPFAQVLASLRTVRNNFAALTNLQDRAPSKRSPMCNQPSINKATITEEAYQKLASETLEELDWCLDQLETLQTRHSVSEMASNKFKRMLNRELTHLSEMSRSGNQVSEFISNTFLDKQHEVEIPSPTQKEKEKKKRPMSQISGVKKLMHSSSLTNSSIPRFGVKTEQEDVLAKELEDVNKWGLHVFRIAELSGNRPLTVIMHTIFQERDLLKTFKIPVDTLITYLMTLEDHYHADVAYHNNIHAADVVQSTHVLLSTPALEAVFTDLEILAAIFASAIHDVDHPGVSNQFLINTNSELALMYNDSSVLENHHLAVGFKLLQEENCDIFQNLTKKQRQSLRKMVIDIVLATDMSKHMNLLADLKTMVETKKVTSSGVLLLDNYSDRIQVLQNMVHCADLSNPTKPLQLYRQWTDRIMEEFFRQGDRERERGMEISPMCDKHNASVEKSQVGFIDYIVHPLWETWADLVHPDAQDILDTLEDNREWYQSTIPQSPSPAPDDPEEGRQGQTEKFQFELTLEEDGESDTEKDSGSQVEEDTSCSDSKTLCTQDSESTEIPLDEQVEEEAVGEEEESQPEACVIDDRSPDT

[6] = target: 3',5'-cyclic-AMP phosphodiesterase 4A (Homo sapiens, UniProt P27815); assay: Evaluated in vitro for its inhibitory activity on unpurified recombinant Phosphodiesterase type 4A (PDE4A).
Sequence of 3',5'-cyclic-AMP phosphodiesterase 4A (P27815 whole entry): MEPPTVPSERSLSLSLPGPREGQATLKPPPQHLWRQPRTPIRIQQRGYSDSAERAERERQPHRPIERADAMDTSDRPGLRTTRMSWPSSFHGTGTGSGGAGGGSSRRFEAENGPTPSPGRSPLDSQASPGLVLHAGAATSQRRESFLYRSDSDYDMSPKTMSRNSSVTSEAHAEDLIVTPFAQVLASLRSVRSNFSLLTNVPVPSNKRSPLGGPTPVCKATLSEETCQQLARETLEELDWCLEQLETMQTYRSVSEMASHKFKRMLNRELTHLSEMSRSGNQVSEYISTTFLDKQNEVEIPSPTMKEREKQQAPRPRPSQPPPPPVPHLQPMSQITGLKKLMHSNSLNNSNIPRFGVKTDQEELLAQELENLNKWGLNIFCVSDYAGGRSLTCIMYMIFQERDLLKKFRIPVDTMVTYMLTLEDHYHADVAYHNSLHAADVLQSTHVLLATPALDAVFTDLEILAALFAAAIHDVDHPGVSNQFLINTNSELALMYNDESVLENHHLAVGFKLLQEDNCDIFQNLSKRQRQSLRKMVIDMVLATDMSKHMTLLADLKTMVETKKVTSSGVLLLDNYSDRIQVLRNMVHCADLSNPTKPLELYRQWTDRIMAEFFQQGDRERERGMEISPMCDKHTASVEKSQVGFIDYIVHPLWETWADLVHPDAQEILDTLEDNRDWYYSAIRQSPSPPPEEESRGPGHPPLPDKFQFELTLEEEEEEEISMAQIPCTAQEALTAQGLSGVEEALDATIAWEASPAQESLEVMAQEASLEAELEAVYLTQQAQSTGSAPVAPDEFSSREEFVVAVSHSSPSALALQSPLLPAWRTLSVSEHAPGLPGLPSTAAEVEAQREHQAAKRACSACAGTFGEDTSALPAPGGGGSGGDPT

Structure (SMILES) | IC50 (Homo sapiens [1]) [nM] | IC50 (Phosphodiesterase 4) [nM] | IC50 (Homo sapiens [2]) [nM] | IC50 [3] [nM] | IC50 [4] [nM] | IC50 [5] [nM] | IC50 [6] [nM]
COc1ccc(C2=NOC(CC(=O)NO)C2)cc1OC1CCCC1 (configuration not stated) | 138 | 221 | – | – | – | – | –
COc1ccc(C(=O)NC(C)C(=O)NO)cc1OC1CCCC1 (configuration not stated) | – | – | 50 | 126 | 22.2 | 20.2 | 50.7
COc1ccc(C(=O)NCC(=O)NO)cc1OC1CCCC1 | 32 | 249 | 66 | 15.3 | 17.9 | 15.6 | 27.2
CCC1(C(=O)NO)CC(c2ccc(OC)c(OC3CCCC3)c2)=NO1 (configuration not stated) | 230 | 178 | – | – | – | – | –
COc1ccc(C(=O)Nc2c(Cl)cncc2Cl)cc1OC1CCCC1 | 2 | – | 80 | – | – | – | –
COc1ccc(C2=NOC(C)(C(=O)NO)C2)cc1OC1CCCC1 (configuration not stated) | – | – | 74 | 95.2 | 10.9 | 10 | 9.8

More lines, now with the values ahead:

IC50 (Homo sapiens [1]) [nM] | IC50 (Phosphodiesterase 4) [nM] | IC50 (Homo sapiens [2]) [nM] | IC50 [3] [nM] | IC50 [4] [nM] | IC50 [5] [nM] | IC50 [6] [nM] | Structure (SMILES)
848 | 1650 | – | – | – | – | – | COc1ccc(-c2cc(C(=O)NO)on2)cc1OC1CCCC1
379 | – | 660 | – | – | – | – | COc1ccc(C2CNC(=O)C2)cc1OC1CCCC1 (configuration not stated) [ROLIPRAM]
4240 | 3930 | – | – | – | – | – | COc1ccc(C2=NOC(C(N)=O)C2)cc1OC1CCCC1 (configuration not stated)
> 50000 | 1760 | – | – | – | – | – | COc1ccc(C(=O)NCC(=O)O)cc1OC1CCCC1
10200 | 3960 | – | – | – | – | – | COc1ccc(C2=NOC(C(=O)N(C)O)C2)cc1OC1CCCC1 (configuration not stated)
35100 | 2540 | – | – | – | – | – | COc1ccc(C2=NOC(C(=O)O)C2)cc1OC1CCCC1 (configuration not stated)
1020 | 567 | – | – | – | – | – | CCCC1(C(=O)NO)CC(c2ccc(OC)c(OC3CCCC3)c2)=NO1 (configuration not stated)
– | – | 30 | 18 | 2.1 | 2.7 | 2.2 | COc1ccc(C2=NOC(C(=O)NO)C2)cc1OC1CCCC1 (configuration not stated)

Reference: ChEMBL document CHEMBL1131452 (J Med Chem, 1998)
